In patent US20220184222A1, “BICYCLE TOXIN CONJUGATES AND USES THEREOF” (BicycleTx Limited, priority 2019, published 2022):
Starred links: 1 amine or outer side, 2 acyl side, 3 side chain; linkers in the order of their positions; H or OH if unused. Non-standard residues stand in square brackets, D forms with d. Residues, ends and D or L forms follow the SMILES beside them. *: point of attachment. Dolaproine = CO[C@@H]([C@@H]1CCCN1)[C@@H](C)C(=O)O; Dil = CC[C@H](C)[C@H](NC)[C@@H](CC(=O)O)OC; PABC = O=C(OCc1ccc(N[*:1])cc1)[*:2]; X1 = O=C(CCCC(=O)*)ON1C(=O)CCC1=O; X2 = C[C@@H](N*)[C@@H](O)c1ccccc1; Cit = NC(=O)NCCC[C@H](N)C(=O)O; NMeV = CN[C@H](C(=O)O)C(C)C

Columns and labels:
Type in all cases: in vivo, Mus musculus
[1] = system: CTG-0363; assay: Champions TumorGraft NSCLC PDX efficacy, model CTG-0363
Description: (§1) Mice were implanted subcutaneously into the left flank with tumor fragments from one of the various models. After tumors grew to an average of 150-300 mm^3, mice were treated by IV administration Q7Dx4 (n=2) with vehicle or 3 mg/kg of BT5528. Effects on tumor growth were evaluated by measuring percent tumor growth inhibition (% TGI), and the number of complete responders (CR), partial responders (PR), and tumor-free survivors (TFS). Tolerability was assessed by body weight loss, lethality, and clinical signs of adverse treatment-related side effects. Tumor volumes and body weights were measured twice a week.
(§2) Dosing solutions of BT5528 […] were pre-formulated. These dosing solutions were stored at −80° C. in the dark. On each day of dosing, a frozen aliquot of each test agent was thawed, stored at 2-8° C. and used for dosing.
(§3) The animals used in this study are described below: • Species: Mus musculus • Strain: Athymic Nude-Foxn1^nu (immune-compromised) • Source: Envigo (Indianapolis, Ind., USA) • Number of animals per group: 2 • Age and sex: At least 6-8 weeks of age at start of dosing, female • Weight: At least 18 grams at start of dosing • Acclimation period: 3 days
(§4) Stock mice were implanted with tumor cells from Champions TumorGraft® models CTG-0160, CTG-0170, CTG-0178, CTG-0192, CTG-0363, CTG-0808, CTG-0838, CTG-0848, CTG-1212, CTG-1502, CTG-1535, CTG-2011, CTG-2393, CTG-2539 or CTG-2540. After the tumors reached 1000-1500 mm^3, they were harvested and the tumor fragments (approximately 5×5×5 mm^3) were implanted SC in the left flank of the female study mice. Each animal was implanted with a specific passage lot and documented. Tumor growth was monitored twice a week using digital calipers and the tumor volume (TV) was calculated using the formula (0.52×[length×width^2]). When the TV reached an average volume of 150-300 mm^3, animals were matched by tumor size and assigned into Vehicle Control and treatment groups (n=2/group) and dosing was initiated on Day 0. After the initiation of dosing on Day 0, animals were weighed twice per week using a digital scale and TV was measured twice per week and also on the final day of study. The study was completed when the mean tumor volume of Vehicle Control reached 1500 mm^3 or up to Day 60, whichever occurred first.
(§5) Beginning on Day 0, animals were observed daily and weighed twice weekly using a digital scale; data including individual and mean gram weights, mean percent weight change versus Day 0 (% vD0) were recorded for each group and % vD0 plotted at study completion. […] Treatment resulting in a mean % vD0>20% and/or >10% mortality was considered above the maximum tolerated dose. Maximum mean % vD0 (weight nadir) for each treatment group was reported at study completion.
(§6) Inhibition of tumor growth was determined by calculating the percent TGI (100%×[1−(final MTV−initial MTV of a treated group)/(final MTV−initial MTV of the control group)]). Treatment started on Day 0.
(§7) Additional endpoints used to evaluate efficacy were: the number of complete responders (CR), partial responders (PR), and tumor-free survivors (TFS). PRs were considered exclusive of CRs, as were TFS.
(§8) Statistical analyses of anti-tumor efficacy were performed using one-way ANOVA followed by Dunnett's multiple comparisons test (GraphPad Prism version 8.2.0). Significant p-values=<0.05.
Animals were dosed according to the schedule on Table 7-1. The study was terminated on Day 28.

[2] = system: CTG-2539; assay: Champions TumorGraft NSCLC PDX efficacy, model CTG-2539
Description: as §1, with “After tumors grew to an average of 150-300 mm^3, mice were treated by IV administration Q7Dx4 (n=2) with vehicle or 3 mg/kg of BT5528.” left out
[…] These dosing solutions were stored at −80° C. in the dark. On each day of dosing, a frozen aliquot of each test agent was thawed, stored at 2-8° C. and used for dosing.
as §3, §4, §5, §6, §7, §8
Animals were dosed according to the schedule on Table 7-1. The Vehicle Control reached endpoint on Day 21 and the BT5528 group reached endpoint on Day 18. The study was terminated on Day 25.

[3] = system: CTG-1502; assay: Champions TumorGraft NSCLC PDX efficacy, model CTG-1502
Description: as §1, §2, §3, §4, §5, §6, §7, §8
Animals were dosed according to the schedule on Table 7-1. The Vehicle Control reached endpoint on Day 17 and the study was terminated on Day 28.

[4] = system: CTG-0192; assay: Champions TumorGraft NSCLC PDX efficacy, model CTG-0192
Description: as §1, with “After tumors grew to an average of 150-300 mm^3, mice were treated by IV administration Q7Dx4 (n=2) with vehicle or 3 mg/kg of BT5528.” left out
as §2, §3, §4, §5, §6, §7, §8
Animals were dosed according to the schedule on Table 7-1. The study was terminated on Day 34.

[5] = system: CTG-0170; assay: Champions TumorGraft NSCLC PDX efficacy, model CTG-0170
Description: as §1, §2, §3, §4, §5, §6, §7, §8
Animals were dosed according to the schedule on Table 7-1. The Vehicle Control group reached endpoint of average tumor volume >1500 mm^3 on Day 14 and was removed from the study. The study was terminated on Day 28. […] Therefore, the tumor volumes on Day 11 were used for analysis of anti-tumor activity in order to include all animals.

[6] = CTG-0363, 3 mg/kg IV Q7Dx4, Day 0-28
[7] = CTG-2539, 3 mg/kg IV Q7Dx3, Day 0-25
[8] = CTG-1502, 3 mg/kg IV Q7Dx4, Day 0-28
[9] = CTG-0192, 3 mg/kg IV Q7Dx5, Day 0-34
[10] = CTG-0170, 3 mg/kg IV Q7Dx4, Day 0-28

CC[C@H](C)[C@@H]([C@@H](CC(=O)N1CCC[C@H]1[C@H](OC)[C@@H](C)C(=O)N[C@H](C)[C@@H](O)c1ccccc1)OC)N(C)C(=O)[C@@H](NC(=O)[C@H](C(C)C)N(C)C(=O)OCc1ccc(NC(=O)[C@H](CCCNC(N)=O)NC(=O)[C@@H](NC(=O)CCCC(=O)ON2C(=O)CCC2=O)C(C)C)cc1)C(C)C [BT5528] (X1-V[Cit][PABC][NMeV]V[Dil][Dolaproine]-X2)
mean body weight loss ([1]; 3 mg/kg IV Q7Dx4): no mean body weight loss | MTV (mean tumor volume) ([1]; 3 mg/kg IV Q7Dx4, Day 28): 1609±18 mm^3 | TGI ([1]; 3 mg/kg IV Q7Dx4, Day 28): 26% | # CR (complete responders) [1, 6]: 0/0/0 | # PR (partial responders) [1, 6]: 0/0/0 | # TFS (tumor-free survivors) [1, 6]: 0/0/0 | % TGI ([1]; CTG-0363, 3 mg/kg IV Q7Dx4, Day 28): 26% | Day 28 Tumor Volume Mean TV ± SEM ([1]; CTG-0363, BT5528 3 mg/kg IV Q7Dx4, Day 28, n=2): 1609 ± 18 mm^3 | MTV (mean tumor volume) ([2]; 3 mg/kg IV Q7Dx3, Day 18): 2029±594 mm^3 | TGI ([2]; 3 mg/kg IV Q7Dx3, Day 18): −51% | # CR (complete responders) [2, 7]: 0/0/0 | # PR (partial responders) [2, 7]: 0/0/0 | # TFS (tumor-free survivors) [2, 7]: 0/0/0 | % TGI ([2]; CTG-2539, 3 mg/kg IV Q7Dx3, Day 18): −51% | Day 18 Tumor Volume Mean TV ± SEM ([2]; CTG-2539, BT5528 3 mg/kg IV Q7Dx3, Day 18, n=2): 2029 ± 594 mm^3 | MTV (mean tumor volume) ([3]; 3 mg/kg IV Q7Dx4, Day 17): 976±229 mm^3 | TGI ([3]; 3 mg/kg IV Q7Dx4, Day 17): 48% | # CR (complete responders) [3, 8]: 0/0/0 | # PR (partial responders) [3, 8]: 0/0/0 | # TFS (tumor-free survivors) [3, 8]: 0/0/0 | % TGI ([3]; CTG-1502, 3 mg/kg IV Q7Dx4, Day 17): 48% | Day 17 Tumor Volume Mean TV ± SEM ([3]; CTG-1502, BT5528 3 mg/kg IV Q7Dx4, Day 17, n=2): 976 ± 229 mm^3 | maximum mean body weight loss ([4]; 3 mg/kg IV Q7Dx5, Day 7): 2.3% | MTV (mean tumor volume) ([4]; 3 mg/kg IV Q7Dx5, Day 34): 740±386 mm^3 | TGI ([4]; 3 mg/kg IV Q7Dx5, Day 34): 36% | # CR (complete responders) [4, 9]: 0/0/0 | # PR (partial responders) [4, 9]: 0/0/0 | # TFS (tumor-free survivors) [4, 9]: 0/0/0 | % TGI ([4]; CTG-0192, 3 mg/kg IV Q7Dx5, Day 34): 36% | Day 34 Tumor Volume Mean TV ± SEM ([4]; CTG-0192, BT5528 3 mg/kg IV Q7Dx5, Day 34, n=2): 740 ± 386 mm^3 | body weight and tolerability of the other animal in the group ([5]; 3 mg/kg IV Q7Dx4): no body weight loss and tolerated the BT5528 well | prior body weight loss of the animal found dead on Day 14 ([5]; 3 mg/kg IV Q7Dx4): 24.8% | MTV (mean tumor volume) ([5]; 3 mg/kg IV Q7Dx4, Day 11): 268±15 mm^3 | TGI ([5]; 3 mg/kg IV Q7Dx4, Day 11): 94% | animals found dead ([5]; 3 mg/kg IV Q7Dx4, n=2, cause of death unknown): one animal in the BT5528 group was found dead on Day 14 | # CR (complete responders) [5, 10]: 0/0/0 | # PR (partial responders) [5, 10]: 0/0/0 | # TFS (tumor-free survivors) [5, 10]: 0/0/0 | % TGI ([5]; CTG-0170, 3 mg/kg IV Q7Dx4, Day 11): 94% | Day 11 Tumor Volume Mean TV ± SEM ([5]; CTG-0170, BT5528 3 mg/kg IV Q7Dx4, Day 11, n=2): 268 ± 15 mm^3
